In US9085576B2 (AMGEN INC., priority 2013, dated 2015):
pIC50: −log10 of the molar value.

How the values were obtained:
[1] = target: Beta Secretase enzyme (BACE) (Homo sapiens (Human), UniProt P56817); assay: In vitro enzymatic BACE FRET assay; format: biochemical; settings: read-out: BACE1 Enzyme assay IC50
Cathepsin D (Cat D) = Cathepsin D (Cat D) (Homo sapiens (Human), UniProt P07339); assay: In vitro enzymatic Cathepsin D (Cat D) FRET assay; format: biochemical; settings: read-out: CatD IC50
Chain of Cathepsin D (Cat D) (P07339 65-412, species assumed): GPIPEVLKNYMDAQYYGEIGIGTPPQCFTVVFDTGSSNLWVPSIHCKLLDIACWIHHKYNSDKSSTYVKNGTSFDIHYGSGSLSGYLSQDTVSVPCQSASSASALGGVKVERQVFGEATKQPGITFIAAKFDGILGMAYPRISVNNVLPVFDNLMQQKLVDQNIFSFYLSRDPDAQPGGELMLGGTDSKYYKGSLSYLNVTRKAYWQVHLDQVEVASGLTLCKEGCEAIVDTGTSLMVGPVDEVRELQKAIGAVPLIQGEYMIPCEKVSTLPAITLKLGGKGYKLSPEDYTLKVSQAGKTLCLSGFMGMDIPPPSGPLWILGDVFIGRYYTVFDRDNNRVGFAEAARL

BACE = BACE (Homo sapiens (Human), UniProt P56817); assay: In vitro BACE cell-based assay (Aβ40 in conditioned medium, sandwich ELISA)
Chain of BACE (P56817 46-501, species assumed): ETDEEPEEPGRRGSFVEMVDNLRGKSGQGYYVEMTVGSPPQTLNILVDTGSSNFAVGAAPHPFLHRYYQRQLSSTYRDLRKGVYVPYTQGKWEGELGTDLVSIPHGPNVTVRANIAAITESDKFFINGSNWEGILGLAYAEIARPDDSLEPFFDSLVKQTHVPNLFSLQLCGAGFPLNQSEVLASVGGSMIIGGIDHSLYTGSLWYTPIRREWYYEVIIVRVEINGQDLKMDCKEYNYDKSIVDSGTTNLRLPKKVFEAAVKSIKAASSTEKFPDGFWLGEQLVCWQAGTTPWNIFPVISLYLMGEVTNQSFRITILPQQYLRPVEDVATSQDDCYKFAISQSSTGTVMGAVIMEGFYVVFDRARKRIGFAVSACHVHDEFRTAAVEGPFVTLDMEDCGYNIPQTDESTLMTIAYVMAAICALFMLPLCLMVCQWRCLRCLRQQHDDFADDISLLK

Chain of Beta Secretase enzyme (BACE) (P56817 46-501): as the sequence (P56817 46-501, species assumed) above

N#Cc1cnc2c(Nc3ccc(Cl)c([C@@]4(C(F)F)N=C(N)O[C@@H]5C[C@@H]54)c3)ncc(F)c2c1 [Example 350, 8-((3-((1R,5S,6R)-3-amino-5-(difluoromethyl)-2-oxa-4-azabicyclo[4.1.0]hept-3-en-5-yl)-4-chlorophenyl)amino)-5-fluoro-1,7-naphthyridine-3-carbonitrile]
pIC50 [1]: 7.50 | pIC50 (Cathepsin D (Cat D)): < 4.83 | IC50 (BACE): 0.0628 µM

N#Cc1cnc2c(Nc3ccc(F)c([C@@]4(C(F)F)N=C(N)O[C@@H]5C[C@@H]54)c3)ncc(F)c2c1 [Example 352, 8-((3-((1R,5S,6R)-3-amino-5-(difluoromethyl)-2-oxa-4-azabicyclo[4.1.0]hept-3-en-5-yl)-4-fluorophenyl)amino)-5-fluoro-1,7-naphthyridine-3-carbonitrile]
pIC50 [1]: 7.41 | pIC50 (Cathepsin D (Cat D)): 3.72 | IC50 (BACE): 0.0593 µM

NC1=N[C@@](c2cc(Nc3ncnc4cc(Cl)cnc34)ccc2F)(C(F)F)[C@H]2C[C@H]2O1 [Example 353, (1R,5S,6R)-5-(5-((7-chloropyrido[3,2-d]pyrimidin-4-yl)amino)-2-fluorophenyl)-5-(difluoromethyl)-2-oxa-4-azabicyclo[4.1.0]hept-3-en-3-amine]
pIC50 [1]: 7.19 | pIC50 (Cathepsin D (Cat D)): 3.85 | IC50 (BACE): 0.0503 µM

COc1cnc2c(Nc3ccc(F)c([C@]4(CF)N=C(N)O[C@H]5C[C@H]54)c3F)nccc2n1 [Example 354, (1S,5R,6S)-5-(2,6-difluoro-3-((2-methoxypyrido[3,4-b]pyrazin-5-yl)amino)phenyl)-5-(fluoromethyl)-2-oxa-4-azabicyclo[4.1.0]hept-3-en-3-amine]
pIC50 [1]: 4.90 | pIC50 (Cathepsin D (Cat D)): 3.53 | IC50 (BACE): 1.46 µM

COc1cnc2c(Nc3ccc(F)c([C@@]4(CF)N=C(N)O[C@@H]5C[C@@H]54)c3F)nccc2n1 [Example 355, (1R,5S,6R)-5-(2,6-difluoro-3-((2-methoxypyrido[3,4-b]pyrazin-5-yl)amino)phenyl)-5-(fluoromethyl)-2-oxa-4-azabicyclo[4.1.0]hept-3-en-3-amine]
pIC50 [1]: < 4.40 | pIC50 (Cathepsin D (Cat D)): 2.56 | IC50 (BACE): > 15.6 µM

CC(C)Oc1cnc2c(Nc3cc(Cl)c(F)c([C@@]4(CF)N=C(N)O[C@@H]5C[C@@H]54)c3)nccc2n1 [Example 357, (1R,5S,6R)-5-(3-chloro-2-fluoro-5-((2-isopropoxypyrido[3,4-b]pyrazin-5-yl)amino)phenyl)-5-(fluoromethyl)-2-oxa-4-azabicyclo[4.1.0]hept-3-en-3-amine]
pIC50 [1]: 6.43 | pIC50 (Cathepsin D (Cat D)): 3.49 | IC50 (BACE): 0.918 µM

Cn1cc2ccnc(Nc3ccc(F)c([C@@]4(C(F)F)N=C(N)O[C@@H]5C[C@@H]54)c3)c2n1 [Example 358]
pIC50 [1]: 5.68 | pIC50 (Cathepsin D (Cat D)): < 3.40 | IC50 (BACE): 0.134 µM

NC1=N[C@](CF)(c2cc(Nc3nccc4cc(Cl)cnc34)ccc2Cl)[C@H]2C[C@H]2O1 [Example 359, (1R,5S,6R)-5-(2-chloro-5-((3-chloro-1,7-naphthyridin-8-yl)amino)phenyl)-5-(fluoromethyl)-2-oxa-4-azabicyclo[4.1.0]hept-3-en-3-amine]
pIC50 [1]: 7.54 | pIC50 (Cathepsin D (Cat D)): 3.60 | IC50 (BACE): 0.0656 µM

COc1cnc2c(Nc3ccc(Cl)c([C@@]4(CF)N=C(N)O[C@@H]5C[C@@H]54)c3)nccc2c1 [Example 360, (1R,5S,6R)-5-(2-chloro-5-((3-methoxy-1,7-naphthyridin-8-yl)amino)phenyl)-5-(fluoromethyl)-2-oxa-4-azabicyclo[4.1.0]hept-3-en-3-amine]
pIC50 [1]: 5.90 | pIC50 (Cathepsin D (Cat D)): 3.07 | IC50 (BACE): 0.139 µM

NC1=N[C@@](c2cc(Nc3nccc4cc(Cl)cnc34)ccc2F)(C(F)F)[C@H]2C[C@H]2O1 [Example 362, (1R,5S,6R)-5-(5-((3-chloro-1,7-naphthyridin-8-yl)amino)-2-fluorophenyl)-5-(difluoromethyl)-2-oxa-4-azabicyclo[4.1.0]hept-3-en-3-amine]
pIC50 [1]: 7.47 | pIC50 (Cathepsin D (Cat D)): 3.40 | IC50 (BACE): 0.254 µM

N#Cc1cnc2c(Nc3ccc(Cl)c([C@@]4(CF)N=C(N)O[C@@H]5C[C@@H]54)c3)ncc(F)c2c1 [Example 363, 8-((3-((1R,5S,6R)-3-amino-5-(fluoromethyl)-2-oxa-4-azabicyclo[4.1.0]hept-3-en-5-yl)-4-chlorophenyl)amino)-5-fluoro-1,7-naphthyridine-3-carbonitrile]
pIC50 [1]: 7.17 | pIC50 (Cathepsin D (Cat D)): < 4.35 | IC50 (BACE): 0.13 µM

COc1cnc2c(Nc3ccc(F)c([C@@]4(C(F)F)N=C(N)O[C@@H]5C[C@@H]54)c3)ncnc2c1 [Example 364, (1R,5S,6R)-5-(difluoromethyl)-5-(2-fluoro-5-((7-methoxypyrido[3,2-d]pyrimidin-4-yl)amino)phenyl)-2-oxa-4-azabicyclo[4.1.0]hept-3-en-3-amine]
pIC50 [1]: 6.65 | pIC50 (Cathepsin D (Cat D)): 3.22 | IC50 (BACE): 0.122 µM

NC1=N[C@@](c2cc(Nc3nccc4nc(C(F)(F)F)cnc34)ccc2F)(C(F)F)[C@H]2C[C@H]2O1 [Example 365, (1R,5S,6R)-5-(difluoromethyl)-5-(2-fluoro-5-((2-(trifluoromethyl)pyrido[3,4-b]pyrazin-5-yl)amino)phenyl)-2-oxa-4-azabicyclo[4.1.0]hept-3-en-3-amine]
pIC50 [1]: 6.69 | pIC50 (Cathepsin D (Cat D)): < 4.35 | IC50 (BACE): 0.254 µM

N#Cc1cnc2c(Nc3cc(F)c(F)c([C@]4(C(F)F)N=C(N)O[C@H]5C[C@H]54)c3)ncc(F)c2c1 [Example 366, 8-((3-((1S,5R,6S)-3-amino-5-(difluoromethyl)-2-oxa-4-azabicyclo[4.1.0]hept-3-en-5-yl)-4,5-difluorophenyl)amino)-5-fluoro-1,7-naphthyridine-3-carbonitrile]
pIC50 [1]: < 4.86 | pIC50 (Cathepsin D (Cat D)): 3.89 | IC50 (BACE): > 16 µM

N#Cc1cnc2c(Nc3cc(F)c(F)c([C@@]4(C(F)F)N=C(N)O[C@@H]5C[C@@H]54)c3)ncc(F)c2c1 [Example 367, 8-((3-((1R,5S,6R)-3-amino-5-(difluoromethyl)-2-oxa-4-azabicyclo[4.1.0]hept-3-en-5-yl)-4,5-difluorophenyl)amino)-5-fluoro-1,7-naphthyridine-3-carbonitrile]
pIC50 [1]: 7.29 | pIC50 (Cathepsin D (Cat D)): 3.99 | IC50 (BACE): 0.524 µM

NC1=N[C@@](c2cc(NCC3CCC3)ccc2F)(C(F)F)[C@H]2C[C@H]2O1 [Example 368, (1R,5S,6R)-5-(5-((cyclobutylmethyl)amino)-2-fluorophenyl)-5-(difluoromethyl)-2-oxa-4-azabicyclo[4.1.0]hept-3-en-3-amine]
pIC50 [1]: 5.56 | pIC50 (Cathepsin D (Cat D)): 3.92 | IC50 (BACE): 1.33 µM

NC1=N[C@@](c2cc(NCC#Cc3ccccc3)ccc2F)(C(F)F)[C@H]2C[C@H]2O1 [Example 369, (1R,5S,6R)-5-(difluoromethyl)-5-(2-fluoro-5-((3-phenylprop-2-yn-1-yl)amino)phenyl)-2-oxa-4-azabicyclo[4.1.0]hept-3-en-3-amine]
pIC50 [1]: 5.18 | pIC50 (Cathepsin D (Cat D)): 4.72 | IC50 (BACE): 3.02 µM

NC1=N[C@@](c2cc(NCC3(c4ccc(Cl)cc4)CC3)ccc2F)(C(F)F)[C@H]2C[C@H]2O1 [Example 370, (1R,5S,6R)-5-(5-(((1-(4-chlorophenyl)cyclopropyl)methyl)amino)-2-fluorophenyl)-5-(difluoromethyl)-2-oxa-4-azabicyclo[4.1.0]hept-3-en-3-amine]
pIC50 [1]: 4.86 | pIC50 (Cathepsin D (Cat D)): 4.20 | IC50 (BACE): 8.85 µM

NC1=N[C@@](c2cc(NC[C@@H]3C[C@H]3c3ccccc3)ccc2F)(C(F)F)[C@H]2C[C@H]2O1 [Example 371, (1R,5S,6R)-5-(difluoromethyl)-5-(2-fluoro-5-((((l(S,R),2(S,R))-2-phenylcyclopropyl)methyl)amino)phenyl)-2-oxa-4-azabicyclo[4.1.0]hept-3-en-3-amine]
pIC50 [1]: 4.95 | pIC50 (Cathepsin D (Cat D)): 3.99 | IC50 (BACE): 2.67 µM

NC1=N[C@@](c2cc(NC[C@H]3C[C@H]3c3ccccc3)ccc2F)(C(F)F)[C@H]2C[C@H]2O1 [Example 372, (1R,5S,6R)-5-(difluoromethyl)-5-(2-fluoro-5-((((1(S,R),2(R,S))-2-phenylcyclopropyl)methyl)amino)phenyl)-2-oxa-4-azabicyclo[4.1.0]hept-3-en-3-amine]
pIC50 [1]: 5.03 | pIC50 (Cathepsin D (Cat D)): 4.07 | IC50 (BACE): 4.94 µM

C=C1CC(CNc2ccc(F)c([C@@]3(C(F)F)N=C(N)O[C@@H]4C[C@@H]43)c2)C1 [Example 375, (1R,5S,6R)-5-(difluoromethyl)-5-(2-fluoro-5-(((3-methylenecyclobutyl)methyl)amino)phenyl)-2-oxa-4-azabicyclo[4.1.0]hept-3-en-3-amine]
pIC50 [1]: 5.22 | pIC50 (Cathepsin D (Cat D)): 4.10 | IC50 (BACE): 2.53 µM

NC1=N[C@@](c2cc(NCC3(C(F)(F)F)CC3)ccc2F)(C(F)F)[C@H]2C[C@H]2O1 [Example 376, (1R,5S,6R)-5-(difluoromethyl)-5-(2-fluoro-5-(((1-(trifluoromethyl)cyclopropyl)methyl)amino)phenyl)-2-oxa-4-azabicyclo[4.1.0]hept-3-en-3-amine]
pIC50 [1]: 5.68 | pIC50 (Cathepsin D (Cat D)): 4.28 | IC50 (BACE): 1.15 µM

NC1=N[C@@](c2cc(NCc3ccc(Cl)cn3)ccc2F)(C(F)F)[C@H]2C[C@H]2O1 [Example 377, (1R,5S,6R)-5-(5-(((5-chloropyridin-2-yl)methyl)amino)-2-fluorophenyl)-5-(difluoromethyl)-2-oxa-4-azabicyclo[4.1.0]hept-3-en-3-amine]
pIC50 [1]: 5.55 | pIC50 (Cathepsin D (Cat D)): 3.75 | IC50 (BACE): 1.11 µM

NC1=N[C@@](c2cc(NCC3CC3)ccc2F)(C(F)F)[C@H]2C[C@H]2O1 [Example 379, (1R,5S,6R)-5-(5-((cyclopropylmethyl)amino)-2-fluorophenyl)-5-(difluoromethyl)-2-oxa-4-azabicyclo[4.1.0]hept-3-en-3-amine]
pIC50 [1]: 5.85 | pIC50 (Cathepsin D (Cat D)): 3.72 | IC50 (BACE): 0.564 µM

COCc1cc(C#N)cnc1C(=O)Nc1ccc(Cl)c([C@@]2(CF)N=C(N)O[C@@H]3C[C@@H]32)c1 [Example 386, N-(3-((1R,5S,6R)-3-amino-5-(fluoromethyl)-2-oxa-4-azabicyclo[4.1.0]hept-3-en-5-yl)-4-chlorophenyl)-5-cyano-3-(methoxymethyl)picolinamide]
pIC50 [1]: 7.60 | pIC50 (Cathepsin D (Cat D)): 2.74 | IC50 (BACE): 0.0085 µM
